Patent US11697648B2, “Fused pyrimidine pyridinone compounds as JAK inhibitors” (THERAVANCE BIOPHARMA R&D IP, LLC, priority 2019, dated 2023)

Assays:
[1] = Colon and plasma mouse pharmacokinetics; type: in vivo; settings: male Balb/c mice, 10 mg/kg PO, ratio of the colon AUC to the plasma AUC; for Kp: mouse, colon tissue / plasma
Description: Assay 5: Colon and Plasma Mouse Pharmacokinetics
To 6 male Balb/c mice was administered 10 mg/kg of compound in 1% HPMC+0.1% Tween-80 by PO administration. At 0.5, 2 and 6 hours after dose administration, animals were anesthetized, and terminal blood samples were collected by cardiac puncture, followed by collection of colon contents and colon tissue.
Blood samples were collected into K2EDTA and stored on wet ice until processed to plasma by centrifugation (12000 rpm at 4° C.). Plasma samples were transferred to cluster tubes and placed on dry ice prior to freezer storage. The colon contents from each animal were collected at each terminal blood collection time point. The colon tissues were flushed with saline and patted dry. The colon and colon content tissues were homogenized using sterile water containing 0.1% formic acid 9:1 (water:tissue, v/w). The homogenized tissues and colon contents were transferred to cluster tubes and placed on dry ice prior to freezer storage. All samples were analyzed using LC/MS/MS against analytical standards.
The composite pharmacokinetic parameters of the compounds were determined by non-compartmental analysis using Phoenix WinNonlin Version 6 (Certara, St. Louis, Mo.) and using mean values from 2 animals/time point. For plasma concentrations below the quantification limit (BQL), the lowest concentration measurable or the BLOQ (below limit of quantification) was used.
A colon to plasma ratio was determined as the ratio of the colon AUC to the plasma AUC.

JAK2 = JAK2 (Homo sapiens (Human), UniProt O60674); assay: Biochemical JAK2 kinase assay (LanthaScreen)
JAK2, sequence (O60674 whole entry): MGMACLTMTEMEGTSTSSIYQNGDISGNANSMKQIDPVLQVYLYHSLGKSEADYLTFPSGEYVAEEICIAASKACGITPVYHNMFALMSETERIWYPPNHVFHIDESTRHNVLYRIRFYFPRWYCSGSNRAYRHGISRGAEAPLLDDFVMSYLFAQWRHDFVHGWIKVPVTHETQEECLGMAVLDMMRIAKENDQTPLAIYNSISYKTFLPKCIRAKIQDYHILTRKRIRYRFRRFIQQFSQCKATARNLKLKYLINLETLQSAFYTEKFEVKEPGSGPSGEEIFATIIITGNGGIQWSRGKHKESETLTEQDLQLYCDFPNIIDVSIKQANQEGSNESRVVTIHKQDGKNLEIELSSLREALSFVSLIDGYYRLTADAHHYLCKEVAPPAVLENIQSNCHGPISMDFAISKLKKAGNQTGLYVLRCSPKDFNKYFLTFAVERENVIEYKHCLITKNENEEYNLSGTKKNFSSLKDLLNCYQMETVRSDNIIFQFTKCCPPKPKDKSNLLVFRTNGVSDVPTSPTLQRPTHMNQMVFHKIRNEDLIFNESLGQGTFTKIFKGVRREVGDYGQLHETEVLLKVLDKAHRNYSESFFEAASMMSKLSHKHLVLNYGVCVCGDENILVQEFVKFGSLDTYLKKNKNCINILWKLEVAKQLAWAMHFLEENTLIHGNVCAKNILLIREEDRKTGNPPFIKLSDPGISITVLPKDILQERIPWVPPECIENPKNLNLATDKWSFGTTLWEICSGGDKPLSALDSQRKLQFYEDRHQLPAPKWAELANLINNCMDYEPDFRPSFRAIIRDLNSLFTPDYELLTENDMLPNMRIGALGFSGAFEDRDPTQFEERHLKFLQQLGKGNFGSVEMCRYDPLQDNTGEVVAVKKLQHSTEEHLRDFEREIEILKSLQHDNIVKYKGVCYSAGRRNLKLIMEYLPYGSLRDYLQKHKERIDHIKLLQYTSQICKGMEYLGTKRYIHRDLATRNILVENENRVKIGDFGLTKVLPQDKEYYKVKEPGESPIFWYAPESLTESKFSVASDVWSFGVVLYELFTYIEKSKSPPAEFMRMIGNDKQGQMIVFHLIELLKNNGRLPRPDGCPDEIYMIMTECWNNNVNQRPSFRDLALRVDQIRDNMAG
In short: (§1)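 GST-JAK + GFP-STAT1 peptide, HEPES pH 7.5/MgCl2/EGTA/Brij-35 buffer; cpd preincubation 1 h RT; ATP start, 1 h RT; stop with 10 mM EDTA + 2 nM Tb-anti-pSTAT1; TR-FRET 520/495. 4-parameter IC50 → pKi (Cheng-Prusoff).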

JAK1 = JAK1 (Homo sapiens (Human), UniProt P23458); assay: Biochemical JAK1 kinase assay (LanthaScreen)
JAK1, sequence (P23458 whole entry): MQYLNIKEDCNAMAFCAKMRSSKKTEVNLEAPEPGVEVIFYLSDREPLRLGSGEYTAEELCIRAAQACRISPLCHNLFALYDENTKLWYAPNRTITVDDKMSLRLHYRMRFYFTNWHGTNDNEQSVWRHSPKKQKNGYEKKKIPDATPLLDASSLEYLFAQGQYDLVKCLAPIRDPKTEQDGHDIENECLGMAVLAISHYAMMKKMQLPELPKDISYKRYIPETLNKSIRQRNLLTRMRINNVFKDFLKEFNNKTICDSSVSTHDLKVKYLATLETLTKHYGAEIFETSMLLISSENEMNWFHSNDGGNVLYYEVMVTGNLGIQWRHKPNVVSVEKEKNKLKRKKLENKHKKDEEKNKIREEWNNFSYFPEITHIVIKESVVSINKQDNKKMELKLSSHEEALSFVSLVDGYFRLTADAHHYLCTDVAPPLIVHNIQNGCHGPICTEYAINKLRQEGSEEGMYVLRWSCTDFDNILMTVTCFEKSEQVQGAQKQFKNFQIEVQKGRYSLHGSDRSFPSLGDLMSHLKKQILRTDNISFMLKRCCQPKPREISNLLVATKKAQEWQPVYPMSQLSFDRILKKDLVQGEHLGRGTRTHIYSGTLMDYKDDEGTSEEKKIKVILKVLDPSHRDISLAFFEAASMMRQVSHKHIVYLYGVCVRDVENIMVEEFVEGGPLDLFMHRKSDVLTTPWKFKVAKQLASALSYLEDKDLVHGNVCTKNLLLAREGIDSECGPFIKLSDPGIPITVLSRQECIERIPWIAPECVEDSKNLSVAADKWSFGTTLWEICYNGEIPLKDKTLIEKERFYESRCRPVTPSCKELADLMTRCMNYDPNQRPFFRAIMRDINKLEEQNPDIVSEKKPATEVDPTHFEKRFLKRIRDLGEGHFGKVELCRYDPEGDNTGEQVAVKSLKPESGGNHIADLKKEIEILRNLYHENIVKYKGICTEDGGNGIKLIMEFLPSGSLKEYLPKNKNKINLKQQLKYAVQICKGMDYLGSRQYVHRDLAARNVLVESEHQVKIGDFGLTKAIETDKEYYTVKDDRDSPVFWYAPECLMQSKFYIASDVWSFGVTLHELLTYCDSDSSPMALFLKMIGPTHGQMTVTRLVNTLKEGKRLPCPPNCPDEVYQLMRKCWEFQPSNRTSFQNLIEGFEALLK
In short: as §1

[2] = tested on: IL-2 stimulated STAT5 phosphorylation in Tall-1 human T cell line (JAK3); assay: Cellular JAK3 potency assay: inhibition of IL-2 stimulated pSTAT5 in Tall-1 T cells; type: cell-based; settings: IL-2 stimulated pSTAT5, Tall-1 T cells
In short: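 AlphaLISA SureFire Ultra measures STAT5 Tyr694/699 phosphorylation in lysed Tall-1 human T cells. Cells were exposed to compound for 1 h at 37 °C before a 30 min IL-2 challenge (300 ng/ml final). Values are pIC50 means with standard deviation from signal-versus-concentration curves.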

Caco-2 cell monolayers = assay: Caco-2 permeation assay; type: in vitro ADME; settings: 5 μM, A-B direction, with Verapamil (25 μM)
In short: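 Passive A-to-B permeability with P-gp inhibited by verapamil (25 μM); compound at 5 μM, n=2. Both compartments sampled at t0 and t120 and quantified by LC-MS/MS, giving apparent permeability in cm/sec from flux, area and concentration.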

Tyk2 = Tyk2 (Homo sapiens (Human), UniProt P29597); assay: Biochemical Tyk2 kinase assay (LanthaScreen)
Tyk2, sequence (P29597 whole entry): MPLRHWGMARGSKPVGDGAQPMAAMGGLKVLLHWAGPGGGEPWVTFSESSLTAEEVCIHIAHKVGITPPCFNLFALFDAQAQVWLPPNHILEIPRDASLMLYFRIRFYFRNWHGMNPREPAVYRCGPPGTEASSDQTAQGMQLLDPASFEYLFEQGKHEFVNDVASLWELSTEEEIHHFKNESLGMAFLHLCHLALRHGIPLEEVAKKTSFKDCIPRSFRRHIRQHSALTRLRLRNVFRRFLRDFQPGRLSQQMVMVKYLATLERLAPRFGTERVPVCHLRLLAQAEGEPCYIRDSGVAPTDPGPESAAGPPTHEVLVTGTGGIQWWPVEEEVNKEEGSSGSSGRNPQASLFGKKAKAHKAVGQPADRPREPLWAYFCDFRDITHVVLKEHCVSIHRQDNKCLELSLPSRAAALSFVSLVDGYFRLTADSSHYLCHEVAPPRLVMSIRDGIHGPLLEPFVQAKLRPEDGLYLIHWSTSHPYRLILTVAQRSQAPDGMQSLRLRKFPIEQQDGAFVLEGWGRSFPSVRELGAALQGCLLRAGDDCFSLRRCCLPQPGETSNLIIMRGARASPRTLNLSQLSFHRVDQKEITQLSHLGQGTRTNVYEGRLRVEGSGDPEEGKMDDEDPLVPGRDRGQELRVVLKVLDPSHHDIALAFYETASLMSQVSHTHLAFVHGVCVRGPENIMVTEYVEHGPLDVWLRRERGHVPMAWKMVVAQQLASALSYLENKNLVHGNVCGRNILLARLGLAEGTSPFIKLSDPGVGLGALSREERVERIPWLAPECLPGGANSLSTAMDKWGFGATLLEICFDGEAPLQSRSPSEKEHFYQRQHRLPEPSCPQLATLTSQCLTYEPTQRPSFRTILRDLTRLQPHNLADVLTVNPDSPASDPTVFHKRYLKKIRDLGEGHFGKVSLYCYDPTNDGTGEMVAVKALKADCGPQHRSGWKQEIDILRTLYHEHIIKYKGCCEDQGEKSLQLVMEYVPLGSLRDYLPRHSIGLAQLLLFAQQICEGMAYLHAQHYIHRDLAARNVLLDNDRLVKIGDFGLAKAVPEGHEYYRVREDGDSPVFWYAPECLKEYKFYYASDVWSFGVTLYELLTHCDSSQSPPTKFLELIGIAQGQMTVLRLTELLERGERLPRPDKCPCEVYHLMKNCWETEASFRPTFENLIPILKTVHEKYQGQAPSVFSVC
In short: as §1

JAK3 = JAK3 (Homo sapiens (Human), UniProt P52333); assay: Biochemical JAK3 kinase assay (LanthaScreen); settings: for JAK3 (pKi)-JAK1 (pKi): selectivity JAK3 over JAK1, difference of pKi
JAK3, sequence (P52333 whole entry): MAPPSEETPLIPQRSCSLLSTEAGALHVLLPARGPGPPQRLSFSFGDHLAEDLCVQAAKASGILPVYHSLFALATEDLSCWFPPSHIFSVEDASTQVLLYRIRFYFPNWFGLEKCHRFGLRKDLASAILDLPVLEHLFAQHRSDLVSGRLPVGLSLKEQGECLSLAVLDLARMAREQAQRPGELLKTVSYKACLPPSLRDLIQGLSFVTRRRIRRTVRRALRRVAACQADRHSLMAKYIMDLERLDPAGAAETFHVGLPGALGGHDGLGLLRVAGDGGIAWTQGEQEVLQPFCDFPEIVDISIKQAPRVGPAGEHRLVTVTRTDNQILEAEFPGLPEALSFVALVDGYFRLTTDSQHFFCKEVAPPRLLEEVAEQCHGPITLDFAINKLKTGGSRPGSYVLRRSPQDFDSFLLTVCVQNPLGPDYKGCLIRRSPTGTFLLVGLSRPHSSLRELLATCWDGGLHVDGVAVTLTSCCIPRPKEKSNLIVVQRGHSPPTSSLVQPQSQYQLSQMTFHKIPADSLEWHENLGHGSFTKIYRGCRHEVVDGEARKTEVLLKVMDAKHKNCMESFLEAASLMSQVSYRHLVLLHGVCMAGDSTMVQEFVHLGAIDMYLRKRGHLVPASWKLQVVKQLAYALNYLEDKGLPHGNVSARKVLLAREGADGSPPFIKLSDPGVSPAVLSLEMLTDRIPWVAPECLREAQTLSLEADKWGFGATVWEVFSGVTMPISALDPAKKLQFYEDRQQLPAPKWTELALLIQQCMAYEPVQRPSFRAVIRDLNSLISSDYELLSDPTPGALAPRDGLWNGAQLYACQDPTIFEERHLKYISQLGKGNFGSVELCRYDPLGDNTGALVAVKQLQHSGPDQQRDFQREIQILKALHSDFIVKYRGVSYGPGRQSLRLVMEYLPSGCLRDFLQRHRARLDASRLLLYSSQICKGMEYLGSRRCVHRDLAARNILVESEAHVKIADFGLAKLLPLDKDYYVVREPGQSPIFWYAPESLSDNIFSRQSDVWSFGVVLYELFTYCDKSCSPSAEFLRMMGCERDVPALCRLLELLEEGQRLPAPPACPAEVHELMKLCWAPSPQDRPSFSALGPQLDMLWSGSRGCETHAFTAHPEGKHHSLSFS
In short: as §1

SMILES | Kp [1] | JAK 2 (pKi) (JAK2) | JAK 1 (pKi) (JAK1) | Tall-1 (pIC50) [2] | Caco Kp (Caco-2 cell monolayers) | Tyk 2 (pKi) (Tyk2) | JAK 3 (pKi) (JAK3) | JAK3 (pKi)-JAK1 (pKi) (JAK3) | colon to plasma ratio [1]
C=CC(=O)N1CC(CCn2c(=O)ccc3cnc(Nc4ccc(N5CCSCC5)cc4)nc32)C1 [Example 26] | > 1000 | E (E represents a pKi value of 7 or below (Ki of 100 nM or above)) | E (E represents a pKi value of 7 or below (Ki of 100 nM or above)) | B (B represents a pC50 value between 6.7 (included) and 7.5 (IC50 between 200 nM and 32 nM)) | C (C represents a value between 10×10^−6 and 30×10^−6 cm/sec) | E (E represents a pKi value of 7 or below (Ki of 100 nM or above)) | B (B represents pKi value between 9 and 10 (Ki between 1 nM and 0.1 nM)) | A (A represents a value of 3 or above) | 
C=CC(=O)N1CCN(CCn2c(=O)ccc3cnc(Nc4ccc(N5CCN(C(=O)CSC)CC5)cc4)nc32)CC1 [Example 150] | > 100 | E (E represents a pKi value of 7 or below (Ki of 100 nM or above)) | E (E represents a pKi value of 7 or below (Ki of 100 nM or above)) | B (B represents a pC50 value between 6.7 (included) and 7.5 (IC50 between 200 nM and 32 nM)) | A (A represents a value below 5×10^−6 cm/sec) | E (E represents a pKi value of 7 or below (Ki of 100 nM or above)) | A (A represents a pKi value≥10 (Ki≤0.1 nM)) | A (A represents a value of 3 or above) | 
C=CC(=O)N1CC(CCn2c(=O)ccc3cnc(Nc4cccc(CN5CCN(C(=O)CSC)CC5)c4)nc32)C1 [Example 134] | > 100 | E (E represents a pKi value of 7 or below (Ki of 100 nM or above)) | E (E represents a pKi value of 7 or below (Ki of 100 nM or above)) | B (B represents a pC50 value between 6.7 (included) and 7.5 (IC50 between 200 nM and 32 nM)) | A (A represents a value below 5×10^−6 cm/sec) | E (E represents a pKi value of 7 or below (Ki of 100 nM or above)) | A (A represents a pKi value≥10 (Ki≤0.1 nM)) | A (A represents a value of 3 or above) | 
C=CC(=O)N1CCN(CCn2c(=O)ccc3cnc(Nc4ccc(N5CCN(C(=O)CSC)CC5)cc4)nc32)[C@@H](C)C1 [Example 173] | > 100 | E (E represents a pKi value of 7 or below (Ki of 100 nM or above)) | E (E represents a pKi value of 7 or below (Ki of 100 nM or above)) | B (B represents a pC50 value between 6.7 (included) and 7.5 (IC50 between 200 nM and 32 nM)) | A (A represents a value below 5×10^−6 cm/sec) | E (E represents a pKi value of 7 or below (Ki of 100 nM or above)) | B (B represents pKi value between 9 and 10 (Ki between 1 nM and 0.1 nM)) | A (A represents a value of 3 or above) | 
C=CC(=O)N1CC(CCn2c(=O)ccc3cnc(Nc4cccc(CN5CCOCC5)c4)nc32)C1 [Example 27] | > 100 | E (E represents a pKi value of 7 or below (Ki of 100 nM or above)) | E (E represents a pKi value of 7 or below (Ki of 100 nM or above)) | B (B represents a pC50 value between 6.7 (included) and 7.5 (IC50 between 200 nM and 32 nM)) | C (C represents a value between 10×10^−6 and 30×10^−6 cm/sec) | E (E represents a pKi value of 7 or below (Ki of 100 nM or above)) | B (B represents pKi value between 9 and 10 (Ki between 1 nM and 0.1 nM)) | A (A represents a value of 3 or above) | 
C=CC(=O)N1CC(CCn2c(=O)ccc3cnc(Nc4ccc(N5CCN(S(=O)(=O)C6COC6)CC5)cc4)nc32)C1 [Example 102] | > 1000 | E (E represents a pKi value of 7 or below (Ki of 100 nM or above)) | E (E represents a pKi value of 7 or below (Ki of 100 nM or above)) | B (B represents a pC50 value between 6.7 (included) and 7.5 (IC50 between 200 nM and 32 nM)) | A (A represents a value below 5×10^−6 cm/sec) | E (E represents a pKi value of 7 or below (Ki of 100 nM or above)) | A (A represents a pKi value≥10 (Ki≤0.1 nM)) | A (A represents a value of 3 or above) | 
C=CC(=O)N1CC(CCn2c(=O)ccc3cnc(Nc4ccc(CN5CCOCC5)cc4)nc32)C1 [Example 44] | > 50 | E (E represents a pKi value of 7 or below (Ki of 100 nM or above)) | E (E represents a pKi value of 7 or below (Ki of 100 nM or above)) | B (B represents a pC50 value between 6.7 (included) and 7.5 (IC50 between 200 nM and 32 nM)) |  | E (E represents a pKi value of 7 or below (Ki of 100 nM or above)) | B (B represents pKi value between 9 and 10 (Ki between 1 nM and 0.1 nM)) | A (A represents a value of 3 or above) | 
C=CC(=O)N1C[C@H](Nc2ncnc3[nH]ccc23)CC[C@@H]1C [PF-06651600, 2-propen-1-one, 1-[(2S,5R)-2-methyl-5-(7-pyrrolo[2,3-d]pyrimidin-4-ylamino)-1-piperidinyl], reference compound] |  |  |  |  |  |  |  |  | 2.8
C=CC(=O)N1CC(C(C)Cn2c(=O)ccc3cnc(Nc4ccc(N5CCN(C(C)=O)CC5)cc4)nc32)C1 (stereo not drawn) [Example 156] | > 14 | E (E represents a pKi value of 7 or below (Ki of 100 nM or above)) | E (E represents a pKi value of 7 or below (Ki of 100 nM or above)) | B (B represents a pC50 value between 6.7 (included) and 7.5 (IC50 between 200 nM and 32 nM)) |  | E (E represents a pKi value of 7 or below (Ki of 100 nM or above)) | B (B represents pKi value between 9 and 10 (Ki between 1 nM and 0.1 nM)) | A (A represents a value of 3 or above) | 
C=CC(=O)N1CC(CCn2c(=O)ccc3cnc(Nc4ccc(N5CCN(CCOCC)CC5)cc4)nc32)C1 [Example 117] |  | E (E represents a pKi value of 7 or below (Ki of 100 nM or above)) | E (E represents a pKi value of 7 or below (Ki of 100 nM or above)) | A (A represents a pIC50 value≥7.5 (IC50≤32 nM)) | C (C represents a value between 10×10^−6 and 30×10^−6 cm/sec) | E (E represents a pKi value of 7 or below (Ki of 100 nM or above)) | A (A represents a pKi value≥10 (Ki≤0.1 nM)) | A (A represents a value of 3 or above) | 
C=CC(=O)N1CCN(CCn2c(=O)ccc3cnc(Nc4ccc(N5CCN(C(=O)N(C)C)CC5)cc4)nc32)[C@@H](CC)C1 [Example 187] |  | E (E represents a pKi value of 7 or below (Ki of 100 nM or above)) | E (E represents a pKi value of 7 or below (Ki of 100 nM or above)) | B (B represents a pC50 value between 6.7 (included) and 7.5 (IC50 between 200 nM and 32 nM)) | C (C represents a value between 10×10^−6 and 30×10^−6 cm/sec) | E (E represents a pKi value of 7 or below (Ki of 100 nM or above)) | B (B represents pKi value between 9 and 10 (Ki between 1 nM and 0.1 nM)) | A (A represents a value of 3 or above) | 
C=CC(=O)N1CC(CCn2c(=O)ccc3cnc(Nc4cnn(CCN(CC)CC)c4)nc32)C1 [Example 55] |  | E (E represents a pKi value of 7 or below (Ki of 100 nM or above)) | E (E represents a pKi value of 7 or below (Ki of 100 nM or above)) | B (B represents a pC50 value between 6.7 (included) and 7.5 (IC50 between 200 nM and 32 nM)) | A (A represents a value below 5×10^−6 cm/sec) | E (E represents a pKi value of 7 or below (Ki of 100 nM or above)) | B (B represents pKi value between 9 and 10 (Ki between 1 nM and 0.1 nM)) | A (A represents a value of 3 or above) | 
